Patent US10632106B2, “Methods of cancer treatment with 2-(1′H-Indole-3′-carbonyl)-thiazole-4-carboxylic acid methyl ester” (Ariagen, Inc., priority 2009, dated 2020)

Key:
[1] = tested on: human ovarian cancer cell line OVCAR-3 xenografts; experiment: OVCAR-3 xenograft growth inhibition in nude mice; format: in vivo; details: 80 mg/kg i.p. once daily
Procedure: (§1) All the procedures related to animal handling, care, and the treatment in the study were performed following guidelines approved by an Institutional Animal Care and Use Committee (IACUC) of Crown Bioscience, Inc. (Santa Clara, Calif., USA, a contract research organization we hired) based on the guidance of the Association for Assessment and Accreditation of Laboratory Animal Care (AAALAC). Animals were checked for any effects of tumor growth and drug treatment on normal behavior such as mobility, food and water consumption, body weight gain/loss (gross body weights were measured twice weekly), eye/hair matting, and any other abnormal effect. Death and observed clinical signs were recorded on the basis of the number of animals within each group. Individual animals with a tumor volume exceeding 3,000 mm^3 or animals of a group with a mean tumor volume exceeding 2,000 mm^3 were euthanized. In addition, animals showing signs of severe distress and/or pain, dropping body weight more than 20% from that at the start of treatment, or losing the capability of accessing adequate food or water were humanely sacrificed.
(§2) Each mouse was inoculated subcutaneously at the right flank with the LNCaP cells (1×10^7) in 0.1 ml of PBS for tumor development. When a mean tumor volume reached around 150 mm^3, the tumor-bearing mice were divided into homogeneous blocks based on their tumor volumes followed by a randomization of mice in each block into treatment groups (thus minimizing variations in tumor response to treatments due to the differential in initial mean tumor volumes). Each treatment group was consisted of 8 tumor-bearing mice. Vehicle (DMSO) or ITE in the vehicle at specified doses were administered to the mice by either i.p. (intraperitoneal) or p.o. (oral) injection once or twice daily for 28 continuous days as indicated.
(§3) Tumor volume was measured twice weekly in two dimensions using a caliper and the volume was calculated with a formula of: V=0.5 a×b^2, where a and b are the long and short diameter (in mm) of a tumor, respectively. The tumor volume was then used for calculations of both TGI (Tumor Growth Inhibition) and TGD (Tumor Growth Delay). The TGI was determined by: TGI=ΔT/ΔC×100%, where ΔT was a difference between the mean tumor volume at a specified day of observation and that at the day treatment starts (day 1) for a drug treated group whereas ΔC was the same difference measured for the control group. The TGD was calculated as: TGD=T−C, where T was the time (in days) required for tumors in a drug treated group to reach a predetermined mean tumor volume and C the time (in days) in the control group to reach the same volume. A tumor weight was derived by equating 1,000 mm^3 in volume to 1,000 mg in weight. A net body weight was then derived by subtracting a tumor weight from a corresponding gross body weight with the tumor.
(§4) Summary statistics, including mean and the standard error of the mean (SEM), are provided for the tumor volume of each group at each time point. Statistical analysis of difference in tumor volume among groups was conducted on a data set either at the best therapeutic time point or at the final dosing day as indicated. The tumor volume data were log-transformed and evaluated using a one-way ANOVA followed by Tukey's test when significance was observed. All data were analyzed using SPSS 16.0 and p<0.05 was considered to be statistically significant.
The culture and inoculation of human prostate cancer cell line LNCaP were as described in Example 1. The manipulation for human liver cancer cell line HepG2 (ATCC) was similar as that for LNCaP except that DMEM (instead of RPMI-1640) medium was used, the L-glutamine was not used, and 2×10^6 cells were used for inoculation into female nude mice. The handling of human ovarian cancer cell line OVCAR-3 (ATCC) was the same as that of LNCaP except that the DMEM medium was used and 5×10^6 cells were used for inoculation into female nude mice. […]

[2] = tested on: human prostate cancer cell line LNCaP xenografts; experiment: LNCaP xenograft growth inhibition in nude mice; format: in vivo; details: for TGI (Tumor Growth Inhibition): TGI=ΔT/ΔC×100%
Procedure: as §1
The human prostate cancer cell line LNCaP (ATCC, American Type Culture Collection, Manassas, Va., USA) were maintained in vitro as monolayer culture in RPMI-1640 medium supplemented with 10% fetal bovine serum (FBS), 100 U/ml penicillin, 100 μg/ml streptomycin, and 2 mM L-glutamine at 37° C. in an atmosphere of 5% CO2 in air. The tumor cells were routinely subcultured twice a week. The cells growing in an exponential phase were harvested and counted for tumor inoculation.
as §2, §3, §4

SMILES: COC(=O)c1csc(C(=O)c2c[nH]c3ccccc23)n1 [ITE, 2-(1′H-indole-3′-carbonyl)-thiazole-4-carboxylic acid methyl ester]
- net body weight loss [1]: no obvious net body weight loss
- TGD (Tumor Growth Delay) ([1]; at a tumor volume of 800 mm^3): 10 days
- TGI (Tumor Growth Inhibition) ([1]; day 33, TGI=ΔT/ΔC×100%): 47%
- TGD (Tumor Growth Delay) ([2]; 20 mg/kg b.w. i.p. once daily, at a tumor volume of 1,000 mm^3): 8 days
- TGI (Tumor Growth Inhibition) ([2]; 20 mg/kg b.w. i.p. once daily, day 28): 64%
- toxic response judged from body weight changes of tumor-bearing mice ([2]; 0.1-40 mg/kg b.w. i.p. every 12 hr for 28 days): did not seem to provoke significant toxic response
- TGI (Tumor Growth Inhibition) ([2]; ITE 0.1 mg/kg b.w. i.p. every 12 hr for 28 days, DMSO, day 28): 74%
- TGI (Tumor Growth Inhibition) ([2]; ITE 1 mg/kg b.w. i.p. every 12 hr for 28 days, day 28): 52%
- TGD (Tumor Growth Delay) ([2]; ITE 1 mg/kg b.w. i.p. every 12 hr, at a tumor size of 600 mm^3): 3 days
- TGI (Tumor Growth Inhibition) ([2]; ITE 10 mg/kg b.w. i.p. every 12 hr for 28 days, day 28): 31%
- TGD (Tumor Growth Delay) ([2]; ITE 10 mg/kg b.w. i.p. every 12 hr, at a tumor size of 600 mm^3): 10 days
- TGI (Tumor Growth Inhibition) ([2]; ITE 20 mg/kg b.w. i.p. every 12 hr for 28 days, day 28): 26%
- TGD (Tumor Growth Delay) ([2]; ITE 20 mg/kg b.w. i.p. every 12 hr, at a tumor size of 600 mm^3): 12 days
- TGI (Tumor Growth Inhibition) ([2]; ITE 40 mg/kg b.w. i.p. every 12 hr for 28 days, day 28): 22%
- TGD (Tumor Growth Delay) ([2]; ITE 40 mg/kg b.w. i.p. every 12 hr, at a tumor size of 600 mm^3): 16 days
- TGI (Tumor Growth Inhibition) ([2]; ITE 80 mg/kg p.o. daily, day 24): 46%
- TGI (Tumor Growth Inhibition) ([2]; ITE 80 mg/kg twice daily i.p., day 28): 12%
- TGI (Tumor Growth Inhibition) ([2]; ITE 80 mg/kg twice daily i.p., the last day): 16%
